inhibition, activation and IC50 data for 21 molecules are collected here from patent US8772307B2, “Substituted spiro compounds and their use for producing pain-relief medicaments” (Gruenenthal GmbH, priority 2005, dated 2014).

Structures are written as SMILES.

For test [1], the target named is T1, rat-species vanilloid receptor 1 (VR1/TRPV1) (Rattus norvegicus, UniProt O35433).
T1 construct: endogenous in cells; host or cells: primary cells dissociated from rat dorsal root ganglia (DRG)
Kind of test: Functional testing on vanilloid receptor 1 (VR1/TRPV1): FLIPR Ca2+ inflow assay in rat dorsal root ganglia cells (% activation / % inhibition vs capsaicin). It is filed as cell-based. Conditions: for inhibition at 10 µM: inhibition compared to 10 μM CP (capsaicin); for activation at 10 µM: stimulation compared to 10 μM CP (capsaicin); for IC50: capsaicin (CAP) stimulus, average. The method, boiled down: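 Rat dorsal root ganglion cells, dissociated with collagenase and trypsin, were plated at 3×10^5/mL on laminin-coated plates in NGF-containing HAMS F12 and cultured 2-3 days at 37° C. Ca2+ inflow read by Fluo-4 fluorescence on FLIPR; test compounds at 10 μM referenced to 10 μM capsaicin.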

Test [2] concerns the target T2, vanilloid receptor (VR1) (Homo sapiens, UniProt Q8NER1).
T2 construct: expressed in transfected cells; host or cells: CHO K1 cells (ECACC), stably transfected
The experiment in a line: Functional testing on vanilloid receptor (VR1): FLIPR Ca2+ inflow assay in CHO K1 cells stably transfected with the VR1 gene. In kind it is cell-based. Conditions: for inhibition at 10 µM: CHO-K1, inhibition compared to 10 μM CP (capsaicin); for activation at 10 µM: CHO-K1, stimulation compared to 10 μM CP (capsaicin); for IC50: capsaicin (CAP) stimulus, average. The method, boiled down: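 CHO K1 cells stably expressing VR1, loaded with Fluo-4 (2 μM, 30 min, 37° C); peak Ca²⁺ fluorescence read on FLIPR. Compound (10 μM) added first, agonism as % of 10 μM capsaicin signal; after 5 min, 100 nM capsaicin added, % inhibition calculated relative to maximal inhibition with 10 μM capsaicin.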

T1 sequence (O35433 whole entry): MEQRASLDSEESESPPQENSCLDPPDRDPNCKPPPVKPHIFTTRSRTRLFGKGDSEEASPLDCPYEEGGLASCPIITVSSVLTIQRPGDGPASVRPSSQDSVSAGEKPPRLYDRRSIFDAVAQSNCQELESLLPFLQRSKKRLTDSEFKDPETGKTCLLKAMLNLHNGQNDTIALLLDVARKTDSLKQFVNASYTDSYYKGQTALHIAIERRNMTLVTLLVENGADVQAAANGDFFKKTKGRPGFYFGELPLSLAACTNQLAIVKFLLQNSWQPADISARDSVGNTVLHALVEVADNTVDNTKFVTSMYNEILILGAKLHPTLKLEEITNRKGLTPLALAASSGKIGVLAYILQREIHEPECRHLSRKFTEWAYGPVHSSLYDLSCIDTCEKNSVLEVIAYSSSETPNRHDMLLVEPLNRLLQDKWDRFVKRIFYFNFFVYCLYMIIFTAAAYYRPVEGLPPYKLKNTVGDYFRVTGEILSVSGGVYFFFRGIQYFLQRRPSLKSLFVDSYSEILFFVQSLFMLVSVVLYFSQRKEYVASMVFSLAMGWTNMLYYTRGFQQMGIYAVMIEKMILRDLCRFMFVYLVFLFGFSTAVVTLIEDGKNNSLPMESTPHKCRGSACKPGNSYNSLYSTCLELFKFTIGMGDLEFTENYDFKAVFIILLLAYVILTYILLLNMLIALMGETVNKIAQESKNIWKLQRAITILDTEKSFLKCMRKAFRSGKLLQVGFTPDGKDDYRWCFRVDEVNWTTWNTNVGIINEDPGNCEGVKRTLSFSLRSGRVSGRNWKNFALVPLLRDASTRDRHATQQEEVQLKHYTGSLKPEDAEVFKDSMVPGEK
T2 sequence (Q8NER1 whole entry): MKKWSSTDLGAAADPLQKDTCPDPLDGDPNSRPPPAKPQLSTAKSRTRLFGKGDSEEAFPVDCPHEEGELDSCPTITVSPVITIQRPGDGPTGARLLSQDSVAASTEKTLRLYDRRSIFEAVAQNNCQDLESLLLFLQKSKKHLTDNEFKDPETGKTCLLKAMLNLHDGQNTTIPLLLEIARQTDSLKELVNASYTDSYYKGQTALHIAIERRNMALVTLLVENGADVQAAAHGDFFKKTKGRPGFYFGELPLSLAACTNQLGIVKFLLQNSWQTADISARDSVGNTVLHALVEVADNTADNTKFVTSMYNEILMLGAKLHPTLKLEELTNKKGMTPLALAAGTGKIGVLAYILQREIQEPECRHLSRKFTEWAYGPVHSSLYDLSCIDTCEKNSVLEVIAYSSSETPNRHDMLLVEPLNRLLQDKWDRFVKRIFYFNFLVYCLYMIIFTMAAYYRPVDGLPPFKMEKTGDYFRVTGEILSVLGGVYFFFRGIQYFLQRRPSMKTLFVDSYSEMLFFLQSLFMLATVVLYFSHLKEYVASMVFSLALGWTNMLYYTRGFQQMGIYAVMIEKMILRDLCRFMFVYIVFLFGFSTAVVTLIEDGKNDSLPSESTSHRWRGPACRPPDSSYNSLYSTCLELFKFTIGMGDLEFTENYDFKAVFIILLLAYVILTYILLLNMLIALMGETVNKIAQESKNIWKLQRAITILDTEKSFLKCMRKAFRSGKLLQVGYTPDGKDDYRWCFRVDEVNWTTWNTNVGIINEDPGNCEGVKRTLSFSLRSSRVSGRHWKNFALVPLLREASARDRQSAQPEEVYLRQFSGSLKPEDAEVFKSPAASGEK

The inhibition is the drop in the measured response relative to a control, in per cent. As for `COc1cccc(C2=NOC3(CCN(C(=O)Nc4cc(C(F)(F)F)ccc4Cl)CC3)C2)c1` [Compound 221, 3-(3-methoxyphenyl)-1-oxa-2,8-diazaspiro[4.5]dec-2-ene-8-carboxylic acid-(2-chloro-5-trifluoromethylphenyl)amide], in test [1], the inhibition at 10 µM is 72.8% and the activation at 10 µM amounted to 0.95%. For the same molecule, in test [2], the inhibition at 10 µM is -11.6% and the activation at 10 µM was -0.04%.
Taken in the same sequence, the figures for `Cc1ccc(C2=NOC3(CCN(C(=O)Nc4cc(C(F)(F)F)ccc4Cl)CC3)C2)cc1` [Compound 225, 3-p-tolyl-1-oxa-2,8-diazaspiro[4.5]dec-2-ene-8-carboxylic acid-(2-chloro-5-trifluoromethylphenyl)amide] were 47.8%, -0.47%, -4.5% and 0.31%.
Taken in the same sequence, the figures for `Cc1ccc(C2=NOC3(CCN(C(=O)Nc4ccc(Cl)c(C(F)(F)F)c4)CC3)C2)cc1` [Compound 236, 3-p-tolyl-1-oxa-2,8-diazaspiro[4.5]dec-2-ene-8-carboxylic acid-(4-chloro-3-trifluoromethylphenyl)amide] were 45.1%, -0.47%, -10.3% and -0.28%.
Taken in the same sequence, the figures for `COc1cccc(C2=NOC3(CCN(C(=O)Nc4ccc(OC(F)(F)F)cc4)CC3)C2)c1` [Compound 244, 3-(3-methoxyphenyl)-1-oxa-2,8-diazaspiro[4.5]dec-2-ene-8-carboxylic acid-(4-trifluoromethoxyphenyl)amide] were 89.1%, 9.79%, 3.09% and -0.28%.
In the case of `O=C(Nc1ccc(OC(F)(F)F)cc1)N1CCC2(CC1)CC(c1ccccc1)=NO2` [Compound 245, 3-phenyl-1-oxa-2,8-diazaspiro[4.5]dec-2-ene-8-carboxylic acid-(4-trifluoromethoxyphenyl)amide], in test [1], the inhibition at 10 µM turned out to be 99% and the activation at 10 µM was determined as 2.55%. Besides, in test [2], the inhibition at 10 µM amounted to 11% and the activation at 10 µM worked out at 0.28%.
On to `FC(F)(F)c1cccc(NC(=S)N2CCC3(CC2)CC(c2ccccc2)=NO3)c1` [Compound 262, 3-phenyl-1-oxa-2,8-diazaspiro[4.5]dec-2-ene-8-thiocarboxylic acid-(3-trifluoromethylphenyl)amide], for which, in test [1], the inhibition at 10 µM was found to be 52.5% and the activation at 10 µM was -0.54%. Also, in test [2], the inhibition at 10 µM was 7.81% and the activation at 10 µM was -0.28%.
In the case of `COc1cccc(C2=NOC3(CCN(C(=S)Nc4ccc(C(C)(C)C)cc4)CC3)C2)c1` [Compound 278, 3-(3-methoxyphenyl)-1-oxa-2,8-diazaspiro[4.5]dec-2-ene-8-thiocarboxylic acid-(4-tert-butylphenyl)amide], in test [1], the inhibition at 10 µM came out at 88.1% and the activation at 10 µM came to 0.73%. In test [2], the inhibition at 10 µM turned out to be 28.1% and the activation at 10 µM came out at 0.66%.
Regarding `Cc1ccc(C2=NOC3(CCN(C(=S)NC4CCCC4)CC3)C2)cc1` [Compound 290, 3-p-tolyl-1-oxa-2,8-diazaspiro[4.5]dec-2-ene-8-thiocarboxylic acid cyclopentylamide], the inhibition at 10 µM in test [1] is 48.4%; in test [2], -7.84%. Moreover, the values for the activation at 10 µM in test [1] and in test [2] were -0.47% and -0.28%, respectively.
One may read the IC50 as the midpoint of a concentration-inhibition curve. With `O=C(C=Cc1ccc(C(F)(F)F)cc1)N1CCC2(CC1)CC(c1ccccc1)=NO2` [Compound 314, 1-(3-phenyl-1-oxa-2,8-diazaspiro[4.5]dec-2-en-8-yl)-3-(4-trifluoromethylphenyl)propenone], in test [1], inhibition was half-maximal at 150 nM (IC50), the inhibition at 10 µM was determined as 82% and the activation at 10 µM is -6%. Further, in test [2], the inhibition at 10 µM was 6%; the activation at 10 µM amounted to 0%; the midpoint of inhibition, the IC50, lay at 825 nM.
Take `CC(C)(C)c1ccc(C=CC(=O)N2CCC3(CC2)CC(c2ccccc2)=NO3)cc1` [Compound 323, 3-(4-tert-butylphenyl)-1-(3-phenyl-1-oxa-2,8-diazaspiro[4.5]dec-2-en-8-yl)propenone]: in test [1], half-maximal inhibition (IC50) was put at 181 nM, the inhibition at 10 µM came to 98% and the activation at 10 µM was determined as 0%. For the same molecule, in test [2], the inhibition at 10 µM turned out to be 36%; the activation at 10 µM is 0%; the midpoint of inhibition, the IC50, lay at 1440 nM.
On to `CC(C)c1ccc(C=CC(=O)N2CCC3(CC2)CC(c2ccccc2)=NO3)cc1` [Compound 325, 3-(4-isopropylphenyl)-1-(3-phenyl-1-oxa-2,8-diazaspiro[4.5]dec-2-en-8-yl)propenone], for which, in test [1], the IC50 was 270 nM, the inhibition at 10 µM was determined as 63% and the activation at 10 µM was -6%. In addition, in test [2], the inhibition at 10 µM turned out to be 6%, the activation at 10 µM turned out to be 0% and the IC50 was found to be 875 nM.
Turning to `CC(C)(C)c1ccc(NC(=O)N2CCC3(CC2)CC(c2ncccc2Cl)=NO3)cc1` [Compound 329, 3-(3-chloropyridin-2-yl)-1-oxa-2,8-diazaspiro[4.5]dec-2-ene-8-carboxylic acid-(4-tert-butylphenyl)amide], the inhibition at 10 µM in test [1] stood at 96%; in test [2] it was 37%. The activation at 10 µM stood at 71% in test [1] and 38% in test [2].
Taken in the same sequence, the figures for `CC(C)(C)c1ccc(NC(=O)N2CCC3(CC2)CC(c2cccc(Cl)c2)=NO3)cc1` [Compound 333, N-(4-tert-butylphenyl)-3-(3-chlorophenyl)-1-oxa-2,8-diazaspiro[4.5]dec-2-ene-8-carboxamide] were 101%, 29%, 9% and 8%.
Taken in the same sequence, the figures for `CC(C)(C)c1ccc(C(/C=C/c2ccccc2)=C/C(=O)N2CCC3(CC2)CC(c2ccccc2)=NO3)cc1` [Compound 337, (2E,4E)-3-(4-tert-butylphenyl)-5-phenyl-1-(3-phenyl-1-oxa-2,8-diazaspiro[4.5]dec-2-en-8-yl)penta-2,4-dien-1-one] were 95%, 16%, 1% and -1%.
As for `COc1cccc(C2=NOC3(CCN(C(=O)/C=C/c4ccc(C(F)(F)F)nc4N4CCOCC4)CC3)C2)c1` [Compound 342, (E)-1-(3-(3-methoxyphenyl)-1-oxa-2,8-diazaspiro[4.5]dec-2-en-8-yl)-3-(2-morpholino-6-(trifluoromethyl)pyridin-3-yl)prop-2-en-1-one], in test [1], the IC50 is 478 nM, the inhibition at 10 µM is 60% and the activation at 10 µM came out at 0%. In test [2], the inhibition at 10 µM was determined as 53%, the activation at 10 µM worked out at 0% and the concentration for half-maximal inhibition (IC50) was 1550 nM.
Take `O=C(/C=C/c1cccc(Br)c1)N1CCC2(CC1)CC(c1ccccc1)=NO2` [Compound 346, (E)-3-(3-bromophenyl)-1-(3-phenyl-1-oxa-2,8-diazaspiro[4.5]dec-2-en-8-yl)prop-2-en-1-one]: in test [1], the midpoint of inhibition, the IC50, lay at 1360 nM; the inhibition at 10 µM was 62%; the activation at 10 µM was found to be 0%. Further, in test [2], the inhibition at 10 µM is 3%, the activation at 10 µM stood at 0% and the IC50 worked out at 4380 nM.
With `O=C(Nc1ccc(C(F)(F)F)cc1)N1CCC2(CC1)CC(c1cccc(F)c1)=NO2` [Compound 348, 3-(3-fluorophenyl)-N-(4-(trifluoromethyl)phenyl)-1-oxa-2,8-diazaspiro[4.5]dec-2-ene-8-carboxamide], in test [1], the inhibition at 10 µM came out at 101% and the activation at 10 µM amounted to 3%. Besides, in test [2], the inhibition at 10 µM was determined as 60% and the activation at 10 µM is 0%.
For the molecule `CC(C)(C)c1ccc(NC(=O)N2CCC3(CC2)CC(c2ccc(F)cc2)=NO3)cc1` [Compound 349, N-(4-tert-butylphenyl)-3-(4-fluorophenyl)-1-oxa-2,8-diazaspiro[4.5]dec-2-ene-8-carboxamide], in test [1], the inhibition at 10 µM was found to be 100% and the activation at 10 µM came out at 5%. Moreover, in test [2], the inhibition at 10 µM was -12% and the activation at 10 µM was determined as 1%.
For `CC(C)(C)c1ccc(CCC(=O)N2CCC3(CC2)CC(c2ccccc2)=NO3)cc1` [Compound 350, 3-(4-tert-butylphenyl)-1-(3-phenyl-1-oxa-2,8-diazaspiro[4.5]dec-2-en-8-yl)propan-1-one], in test [1], the inhibition at 10 µM turned out to be 81% and the activation at 10 µM was determined as 1%. Also, in test [2], the inhibition at 10 µM was -4% and the activation at 10 µM turned out to be 0%.
Taken in the same sequence, the figures for `CC(C)(C)c1ccc(NC(=O)N2CCC3(CC2)CC(c2cccc(F)c2)=NO3)cc1` [Compound 351, N-(4-tert-butylphenyl)-3-(3-fluorophenyl)-1-oxa-2,8-diazaspiro[4.5]dec-2-ene-8-carboxamide] were 101%, 6%, 83% and 3%.
Taken in the same sequence, the figures for `CC(C)(C)c1ccc(NC(=O)N2CCC3(CC2)CC(c2ccccc2F)=NO3)cc1` [Compound 352, N-(4-tert-butylphenyl)-3-(2-fluorophenyl)-1-oxa-2,8-diazaspiro[4.5]dec-2-ene-8-carboxamide] were 95%, 7%, -3% and 2%.
